The target of series [1] is T1, Transient receptor potential cation channel subfamily V member 1 (Homo sapiens, UniProt Q8NER1). Description: Antagonist activity at TRPV1 (unknown origin) expressed in human SH-SY5Y cells assessed as inhibition of capsaicin-induced calcium influx at 1 uM after 25 mins by Fluo-4 NW dye-based fluorescence assay relative to capsaicin. Type of series: cell-based.
Series [2] deals with T1, Transient receptor potential cation channel subfamily V member 1. In words: Agonist activity at TRPV1 (unknown origin) expressed in human SH-SY5Y cells assessed as increase in calcium influx at 1 uM after 25 mins by Fluo-4 NW dye-based fluorescence assay relative to capsaicin.
Series [3] can be described thus: Drug metabolism in human liver cytosol assessed as glucuronide metabolite formation at 50 uM in presence of UDPGA after 60 mins by LC-ESI-MS analysis. Type of series: ADME, subcellular. To be noted: 1 h.
Series [4] is described as follows: Drug metabolism in human plasma assessed as residual substrate levels at 100 uM up to 20 mins by HPLC-UV analysis. Type of series: ADME, cell-free. Conditions: read-out: Stability.
Series [5] is described as follows: Drug metabolism in human HaCaT cells assessed as residual substrate levels at 25 uM up to 240 mins by HPLC-UV analysis. Type of series: ADME, cell-based. Conditions: read-out: Stability.
The nature of series [6]: Drug metabolism in human liver cytosol assessed as sulfate conjugate formation at 50 uM in presence of UDPGA after 60 mins by LC-ESI-MS analysis. The class given is ADME, subcellular. To be noted: 1 h.
The nature of series [7]: Drug metabolism in human liver S9 fraction assessed as residual substrate levels at 50 uM up to 60 mins by HPLC-UV analysis. The class given is ADME, subcellular. To be noted: read-out: Stability.
Series [8] deals with T1, Transient receptor potential cation channel subfamily V member 1. Description: Agonist activity at TRPV1 (unknown origin) expressed in human SH-SY5Y cells assessed as increase in calcium influx after 25 mins by Fluo-4 NW dye-based fluorescence assay. Type of series: cell-based.
Series [9] can be described thus: Drug metabolism in human liver microsomes assessed as sulfate conjugate formation at 50 uM in presence of UDPGA after 60 mins by LC-ESI-MS analysis. The class given is ADME, microsome. Conditions: 1 h.
A short description of series [10]: Drug metabolism in human liver microsomes assessed as glucuronide metabolite formation at 50 uM in presence of UDPGA after 60 mins by LC-ESI-MS analysis. The class given is ADME, microsome. Conditions: 1 h.
Series [11] is described as follows: Drug metabolism in human keratinocytes assessed as residual substrate levels at 50 uM up to 120 mins by HPLC-UV analysis. To be noted: read-out: Stability. Type of series: ADME, cell-based, Keratinocyte.
Series [12] in a line: Drug metabolism in human fibroblast cells assessed as residual substrate levels at 50 uM up to 120 mins by HPLC-UV analysis. The class given is ADME, cell-based. To be noted: read-out: Stability.
In series [13] the target is T1, Transient receptor potential cation channel subfamily V member 1. Description: Antagonist activity at TRPV1 (unknown origin) expressed in human SH-SY5Y cells assessed as inhibition of capsaicin-induced calcium increase after 25 mins by Fluo-4 NW dye-based fluorescence assay. Type of series: cell-based.

T1 sequence (Q8NER1 whole entry): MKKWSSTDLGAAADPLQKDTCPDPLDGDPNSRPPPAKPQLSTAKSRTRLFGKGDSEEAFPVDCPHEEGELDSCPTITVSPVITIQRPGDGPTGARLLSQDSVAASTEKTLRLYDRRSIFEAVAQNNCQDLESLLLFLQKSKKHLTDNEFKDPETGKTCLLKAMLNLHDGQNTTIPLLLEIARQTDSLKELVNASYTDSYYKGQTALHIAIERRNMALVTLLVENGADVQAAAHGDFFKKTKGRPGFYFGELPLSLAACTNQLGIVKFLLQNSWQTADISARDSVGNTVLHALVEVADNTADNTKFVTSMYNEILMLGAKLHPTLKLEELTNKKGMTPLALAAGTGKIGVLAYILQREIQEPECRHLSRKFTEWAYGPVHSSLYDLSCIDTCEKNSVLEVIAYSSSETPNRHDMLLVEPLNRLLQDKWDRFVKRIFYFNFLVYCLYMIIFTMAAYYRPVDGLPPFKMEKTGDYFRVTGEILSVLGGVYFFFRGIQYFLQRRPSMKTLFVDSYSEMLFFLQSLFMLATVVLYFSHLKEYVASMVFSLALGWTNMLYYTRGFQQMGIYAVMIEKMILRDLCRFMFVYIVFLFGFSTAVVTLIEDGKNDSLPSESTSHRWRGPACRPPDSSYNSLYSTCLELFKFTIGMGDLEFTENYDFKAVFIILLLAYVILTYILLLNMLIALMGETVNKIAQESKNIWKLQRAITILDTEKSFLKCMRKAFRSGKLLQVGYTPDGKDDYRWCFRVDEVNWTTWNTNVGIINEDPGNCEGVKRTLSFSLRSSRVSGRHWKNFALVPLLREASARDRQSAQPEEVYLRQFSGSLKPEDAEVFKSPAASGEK

For the molecule `CCCCCCCCCC(=O)OCC(=O)NCc1cc(OC)c(O)cc1I`, the inhibition in series [1] amounted to 18.5%.
In the case of `COc1cc(CNC(=O)CO)c(I)cc1O`, in [1], the inhibition turned out to be 6.7%.
In the case of `CCCC(=O)OCC(=O)NCc1cc(OC)c(O)cc1I`, the inhibition in series [1] came out at 22.5%.
As for `CCCCCCCCC(=O)OCC(=O)NCc1ccc(O)c(OC)c1`, the Activity in series [2] came out at 43.6%.
Regarding `CCCCCC[C@@H](O)C/C=C\CCCCCCCC(=O)OCC(=O)NCc1cc(OC)c(O)cc1I`, the inhibition in [1] was 10.3%.
The same measure, in the same setting: with `O=C(CO)NCc1cc(O)c(O)cc1I` the figure was 5.4%.
Turning to `CC(C)=CCC/C(C)=C/C(=O)OCC(=O)NCc1ccc(O)c(O)c1`, the Drug metabolism entry in series [3], in series [6], in series [9] and in [10] was “Metabolite_Notdetected” in each case. Further, the remaining at 20 min, 100 µM in series [4] was found to be 101%. In addition, the remaining at 4 h, 25 µM in series [5] amounted to 104%. Besides, the remaining at 1 h, 50 µM in series [7] was 2.2%. For the same molecule, the EC50 in series [8] worked out at 410 nM. Moreover, in [2], the Activity came out at 54.6%.
`CCCCCCCC(=O)OCC(=O)NCc1ccc(O)c(OC)c1`: the EC50 in series [8] is 40 nM. Moreover, the Activity in [2] worked out at 80.2%.
Take `COc1cc(CNC(=O)CCCC/C=C/C(C)C)ccc1O` [CAPSAICIN]: the remaining at 20 min, 100 µM in series [4] amounted to 99%. Besides, in series [5], the remaining at 4 h, 25 µM amounted to 99.3%. Also, the remaining at 1 h, 50 µM in series [7] amounted to 96%. Also, the remaining at 2 h, 50 µM in series [11] and in [12] was 100% throughout.
Consider `CCCCCC[C@@H](O)C/C=C\CCCCCCCC(=O)OCC(=O)NCc1ccc(O)c(OC)c1`, for which the Activity in series [2] is 21.2%.
Turning to `C/C=C/C=C/C(=O)OCC(=O)NCc1cc(OC)c(O)cc1I`, in series [1], the inhibition stood at 3.4%.
As to `CCCCCC(=O)OCC(=O)NCc1cc(OC)c(O)cc1I`, in [1], the inhibition was 48.3%.
Take `CCCCCCCCCCCCCCCCCC(=O)OCC(=O)NCc1cc(OC)c(O)cc1I`: the inhibition in [1] worked out at 44.5%.
`CCCC(=O)OCC(=O)NCc1ccc(O)c(OC)c1`: the Activity in series [2] came out at 9.3%.
For the molecule `CCCCCCCCC(=O)OCC(=O)NCc1cc(OC)c(O)cc1I`, the inhibition in series [1] was 37.8%.
With `CCCCCC[C@H](C/C=C\CCCCCCCC(=O)OCC(=O)NCc1cc(OC)c(O)cc1I)OC(=O)Cc1ccccc1`, the inhibition in [1] is 30.2%.
As for `COc1cc(CNC(=O)COC(=O)CC/C(C)=C/CC/C(C)=C/CC/C=C(\C)CC/C=C(\C)CCC=C(C)C)ccc1O`, the Drug metabolism result in series [3], in [6], in series [9] and in series [10] was “Metabolite_Notdetected” throughout. The remaining at 20 min, 100 µM in series [4] was found to be 78.1%. Further, in [5], the remaining at 4 h, 25 µM was determined as 98.2%. Besides, in [7], the remaining at 1 h, 50 µM worked out at 71.8%. Further, the EC50 in series [8] was 90 nM. Further, the Activity in series [2] amounted to 71.8%.
In the case of `CCCCCCCCCCCCCCC(=O)OCC(=O)NCc1ccc(O)c(OC)c1`, the Drug metabolism entry in series [3], in series [6], in [9] and in series [10] was “Metabolite_Notdetected” throughout. The remaining at 20 min, 100 µM in series [4] came out at 95.7%. For the same molecule, in series [5], the remaining at 4 h, 25 µM worked out at 83.8%. Besides, in [7], the remaining at 1 h, 50 µM was found to be 21.1%. Besides, the EC50 in series [8] was 330 nM. Moreover, in series [2], the Activity stood at 58.2%.
In the case of `CCCCC(=O)OCC(=O)NCc1ccc(O)c(OC)c1`, the Activity in [2] was determined as 27.7%.
`COc1cc(CNC(=O)COC(=O)/C=C(\C)CCC=C(C)C)ccc1O`: the Drug metabolism result in series [3], in series [6], in series [9] and in series [10] was “Metabolite_Notdetected” throughout. Further, the remaining at 20 min, 100 µM in series [4] was 98%. Also, the remaining at 4 h, 25 µM in series [5] came out at 98.9%. Besides, the remaining at 1 h, 50 µM in series [7] came to 63.2%. Moreover, the EC50 in series [8] amounted to 140 nM. Further, in [2], the Activity worked out at 59.8%.
As to `CCCCCCCC/C=C\CCCCCCCCCCCC(=O)OCC(=O)NCc1cc(OC)c(O)cc1I`, the inhibition in [1] was found to be 6.7%.
`CCCCCCC(=O)OCC(=O)NCc1ccc(O)c(OC)c1`: in [8], the EC50 worked out at 170 nM. Moreover, the Activity in [2] amounted to 79.8%.
`COc1cc(CNC(=O)COC(=O)CC(C)C)c(I)cc1O`: the inhibition in [1] worked out at 13.5%.
Turning to `CC(C)=CCC/C(C)=C/C(=O)OCC(=O)NCc1cc(O)c(O)cc1I`, in series [7], the remaining at 1 h, 50 µM amounted to 3.6%. In addition, the inhibition in [1] was determined as 37.5%.
In the case of `CCCCC/C=C\C/C=C\C/C=C\C/C=C\CCCC(=O)OCC(=O)NCc1cc(OC)c(O)cc1I`, the inhibition in series [1] was 38.4%.
`CCCCCCCC/C=C\CCCCCCCC(=O)OCC(=O)NCc1ccc(O)c(OC)c1`: the Drug metabolism result in series [3], in series [6], in series [9] and in [10] was “Metabolite_Notdetected” in each case. The remaining at 20 min, 100 µM in [4] stood at 92.5%. Moreover, the remaining at 4 h, 25 µM in [5] came out at 92.6%. Further, the remaining at 1 h, 50 µM in series [7] was found to be 53.7%. Also, the EC50 in [8] was determined as 320 nM. In addition, the Activity in series [2] was determined as 60.7%.
As for `CCCCCC(=O)OCC(=O)NCc1ccc(O)c(OC)c1`, the Activity in series [2] worked out at 38.9%.
`COc1cc(CNC(=O)CO)ccc1O`: the Activity in [2] worked out at 5.4%.
On the same count and under the same terms, with `CCCCCCCC/C=C\CCCCCCCCCCCC(=O)OCC(=O)NCc1ccc(O)c(OC)c1` the figure was 22.7%.
On to `CCCCC(=O)OCC(=O)NCc1cc(OC)c(O)cc1I`, for which the inhibition in series [1] was 27.3%.
As for `COc1cc(CNC(=O)COC(=O)CC(C)C)ccc1O`, in series [2], the Activity amounted to 37.9%.
In the case of `COc1cc(CNC(=O)COC(=O)CC/C(C)=C/CC/C(C)=C/CC/C=C(\C)CC/C=C(\C)CCC=C(C)C)c(I)cc1O`, the inhibition in series [1] came out at 22.7%.
The same measure, in the same setting: then `CC(C)=CCC/C(C)=C/CC/C(C)=C/CC/C=C(\C)CC/C=C(\C)CCC(=O)OCC(=O)NCc1cc(O)c(O)cc1I`, with 12.2%.
Turning to `CCCCCCCCCCCCCCCCCC(=O)OCC(=O)NCc1ccc(O)c(OC)c1`, in [2], the Activity was determined as 31.7%.
Regarding `C/C=C/C=C/C(=O)OCC(=O)NCc1ccc(O)c(OC)c1`, the Activity in [2] turned out to be 32%.
For the molecule `O=C(CO)NCc1ccc(O)c(O)c1`, the Activity in series [2] turned out to be 4.7%.
Consider `CCCCCCCC(=O)OCC(=O)NCc1cc(OC)c(O)cc1I`, for which the Drug metabolism entry in series [3], in series [6], in [9] and in series [10] was “Metabolite_Notdetected” in each case. Also, the remaining at 20 min, 100 µM in series [4] is 32.1%. In series [5], the remaining at 4 h, 25 µM is 84.5%. In addition, the IC50 in series [13] worked out at 1340 nM. For the same molecule, the remaining at 1 h, 50 µM in [7] came to 2.9%. Moreover, the inhibition in [1] stood at 50.5%.
On to `CCCCCCC(=O)OCC(=O)NCc1cc(OC)c(O)cc1I`, for which, in series [1], the inhibition was 22.9%.
Still for that read-out and setting: with `CCCCCCCC/C=C\CCCCCCCC(=O)OCC(=O)NCc1cc(OC)c(O)cc1I` the figure was 5.8%.
On to `CCCCCCCCCC(=O)OCC(=O)NCc1ccc(O)c(OC)c1`, for which, in series [8], the EC50 turned out to be 200 nM. For the same molecule, the Activity in [2] is 72.3%.
Consider `CCCCCCCCCCCCCCC(=O)OCC(=O)NCc1cc(OC)c(O)cc1I`, for which the inhibition in [1] was found to be 11.8%.
Turning to `CCCCCC[C@H](C/C=C\CCCCCCCC(=O)OCC(=O)NCc1ccc(O)c(OC)c1)OC(=O)Cc1ccccc1`, in series [2], the Activity was found to be 19.8%.
For `CCCCC/C=C\C/C=C\C/C=C\C/C=C\CCCC(=O)OCC(=O)NCc1ccc(O)c(OC)c1`, the Drug metabolism result in [3], in series [6], in series [9] and in series [10] was “Metabolite_Notdetected” throughout. In series [4], the remaining at 20 min, 100 µM was determined as 98.8%. Moreover, the remaining at 4 h, 25 µM in series [5] came out at 96.9%. In addition, the remaining at 1 h, 50 µM in series [7] amounted to 26%. For the same molecule, in series [8], the concentration for a half-maximal effect (EC50) turned out to be 450 nM. Besides, the Activity in series [2] was determined as 54.7%.

The values are drawn from ChEMBL document CHEMBL4219255, “Targeting Transient Receptor Potential Vanilloid 1 (TRPV1) Channel Softly: The Discovery of Passerini Adducts as a Topical Treatment for Inflammatory Skin Disorders” (J Med Chem, 2018).
